Source: patent publication US9771372B2, “Compounds useful as S100-inhibitors” (Active Biotech AB, priority 2014, dated 2017)

Target: T1, interaction between biotinylated human S100A9 and human RAGE-Fc (Homo sapiens, UniProt P06702)
T1 construct: made in house; host or cells: E. coli BL21(DE3)/pET1120 (pLR757)
T1 sequence (P06702 1-114): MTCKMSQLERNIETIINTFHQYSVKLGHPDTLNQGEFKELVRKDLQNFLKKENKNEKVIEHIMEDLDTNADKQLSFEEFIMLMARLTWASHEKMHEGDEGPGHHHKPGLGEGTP
Experiment: AlphaScreen inhibition assay, Biot-hS100A9:hRAGE-Fc (S100A9-RAGE inhibition assay)
Assay type: binding
Conditions: biot-hS100A9 and rhRAGE-Fc, Ca2+ and Zn2+ in buffer
Source text: FIG. 1 is a schematic representation of an assay of the inhibition of the interaction between biotinylated human S100A9 and human RAGE-Fc using a small molecule S100A9 binder.
Inhibition Assay, Biot-hS100A9:hRAGE-Fc
The AlphaScreen (Amplified Luminescent Proximity Homogeneous Assay) contains two types of beads, Alpha Donor beads and Acceptor beads (PerkinElmer). Upon laser excitation at 680 nm a photosensitizer in the Donor bead converts ambient oxygen to a more excited singlet state. The singlet oxygen molecule diffuses (maximum 200 nm) to react with a thioxene derivative in the Acceptor bead and generates a chemiluminescence reaction. Fluorophores in the Acceptor bead subsequently emit light at 520-620 nm which can be detected in the EnVision® Multilabel plate Reader (PerkinElmer). The beads are light sensitive and all work with the beads is performed under subdued light conditions or using green filters on light sources (Roscolux Chroma Green #389, Rosco).
In the AlphaScreen Inhibition Assay described here, protein A (Staphylococcus aureus) conjugated Acceptor beads are used together with streptavidin coated Donor beads (Perkin Elmer 6760617M). The Acceptor beads are pre-incubated with Fc-tagged recombinant human RAGE (rhRAGE-Fc) allowing binding of the rhRAGE-Fc to protein A on the beads. Biotinylated human S100A9 (biot-hS100A9) is pre-incubated with the low molecular test compounds. The pre-mixes are then added to the wells of a micro-plate and incubated allowing interaction between biot-hS100A9 and rhRAGE-Fc. Subsequent addition of streptavidin coated Donor beads causes binding of the streptavidin to the biotinylated hS100A9. After an additional incubation the signal is measured.
Without inhibitory compounds, the interaction of biot-hS100A9 to rhRAGE-Fc will bring the Acceptor and Donor beads in close proximity thus generating a high signal. With an inhibitor present the complex will not form resulting in a decreased signal.
The AlphaScreen assay method is used for screening of the inhibitory effect of different compound samples at fixed concentrations or for IC50 determination by varying the compound concentrations. Samples of test compounds and references are prepared from solutions in DMSO. Relevant reference inhibitors and DMSO are used as controls for defined inhibition and non-inhibition, respectively in the assay. The percent inhibition in assay for test compounds and references are calculated by comparing their obtained assay signals with the signal values for the control with only DMSO (no compound).
Assay concentration of biotinylated hS100A9 and rhRAGE-Fc are batch dependent, and are determined and defined by separate cross-titration experiments using this AlphaScreen inhibition method to verify the optimal setup regarding signal strength and achievement of a defined inhibition with relevant reference compounds. The Final assay concentrations of Acceptor and Donor beads are 20 μg/mL.
Assay buffer is prepared by adding CaCl2 and ZnCl2 to HBS-P and is used freshly prepared in the experiment.
Biotin-hS100A9 solution for the experiment is prepared by dilution of appropriate amount of stock solution biot-hS100A9 in assay buffer (with CaCl2 and ZnCl2) and incubation in room temperature for 30 minutes.
rhRAGE-Fc solution for the experiment is prepared by dilution appropriate amount of rhRAGE-Fc stock in assay buffer.
Protein A Acceptor beads are diluted in assay buffer and are added to an equal volume of the prepared diluted rhRAGE-Fc solution. The beads are light sensitive. The vial is covered with aluminum foil and incubated at room temperature in the dark until biot-hS100A9+compound incubation is finished (see below).
Streptavidin-coated Donor beads are diluted in assay buffer. The beads are very light sensitive. The vial is covered with aluminum foil and incubated at room temperature in the dark until use (see below).
Samples of test compounds, appropriate references and DMSO control are diluted in assay buffer. […]

| SMILES | IC50 [µM] |
| --- | --- |
| O=C(CCc1ccccc1)NC1(C(F)(F)F)C(=O)Nc2nc3cc(Cl)c(Cl)cc3n21 (stereo not drawn) [Example 37, N-[10,11-dichloro-4-oxo-3-(trifluoromethyl)-2,5,7-triazatricyclo[6.4.0.0^2,6]dodeca-1(8),6,9,11-tetraen-3-yl]-3-phenylpropanamide] | 0.8 |
| CC(=O)c1cccc2c1nc1n2C(NC(=O)CCC2CCCC2)(C(F)(F)F)C(=O)N1 (stereo not drawn) [Example 122, N-[9-acetyl-4-oxo-3-(trifluoromethyl)-2,5,7-triazatricyclo[6.4.0.0^2,6]dodeca-1(12),6,8,10-tetraen-3-yl]-3-cyclopentylpropanamide] | 1.5 |
| O=C(NC1(C(F)(F)F)C(=O)Nc2nc3cc(Cl)c(Cl)cc3n21)c1cccc(NC2CCCCC2)n1 (stereo not drawn) [Example 66, 6-(cyclohexylamino)-N-[10,11-dichloro-4-oxo-3-(trifluoromethyl)-2,5,7-triazatricyclo-[6.4.0.0^2,6]dodeca-1(12),6,8,10-tetraen-3-yl]pyridine-2-carboxamide] | 0.4 |
| Cc1cc2nc3n(c2cc1C)C(NC(=O)[C@@H]1CCCN1S(C)(=O)=O)(C(F)(F)F)C(=O)N3 (single isomer, unassigned) [Example 89] | 5.9 |
| O=C(CCC1CCCC1)NC1(C(F)(F)F)C(=O)Nc2nc3c(NS(=O)(=O)C4CC4)cccc3n21 (stereo not drawn) [Example 165, 3-cyclopentyl-N-[9-cyclopropanesulfonamido-4-oxo-3-(trifluoromethyl)-2,5,7-triazatricyclo[6.4.0.0^2,6]dodeca-1(12),6,8,10-tetraen-3-yl]propanamide] | 1.43 |
| O=C(NC1(C(F)(F)F)C(=O)Nc2nc3cc(Cl)c(Cl)cc3n21)c1cccc(OCC(F)(F)F)n1 (stereo not drawn) [Example 64, N-[10,11-dichloro-4-oxo-3-(trifluoromethyl)-2,5,7-triazatricyclo[6.4.0.0^2,6]dodeca-1(12),6,8,10-tetraen-3-yl]-6-(2,2,2-trifluoroethoxy)pyridine-2-carboxamide] | 1.3 |
| CC(=O)c1cccc2c1nc1n2C(NC(=O)CCC2CCCC2)(C(F)(F)F)C(=O)N1 (single isomer, unassigned) [Example 224a, N-[9-acetyl-4-oxo-3-(trifluoromethyl)-2,5,7-triazatricyclo[6.4.0.0^2,6]dodeca-1(12),6,8,10-tetraen-3-yl]-3-cyclopentylpropanamide] | 0.88 |
| Cc1cc2nc3n(c2cc1C)C(NC(=O)c1ccc(-c2ccccc2)cc1)(C(F)(F)F)C(=O)N3 (stereo not drawn) [Example 18, N-[10,11-dimethyl-4-oxo-3-(trifluoromethyl)-2,5,7-triazatricyclo[6.4.0.0^2,6]dodeca-1(8),6,9,11-tetraen-3-yl]-4-phenylbenzamide] | 2 |
| O=C(CCC1CCCC1)NC1(C(F)(F)F)C(=O)Nc2nc3c(F)c(F)ccc3n21 (stereo not drawn) [Example 82, 3-cyclopentyl-N-[9,10-difluoro-4-oxo-3-(trifluoromethyl)-2,5,7-triazatricyclo[6.4.0.0^2,6]-dodeca-1(12),6,8,10-tetraen-3-yl]propanamide] | 1.4 |
| O=C(NC1(C(F)(F)F)C(=O)Nc2nc3cc(Cl)c(Cl)cc3n21)C1CNC1 (stereo not drawn) [Example 47, N-[10,11-dichloro-4-oxo-3-(trifluoromethyl)-2,5,7-triazatricyclo[6.4.0.0^2,6]dodeca-1(12),6,8,10-tetraen-3-yl]azetidine-3-carboxamide] | 3.9 |
| Cc1cc2nc3n(c2cc1C)C(NC(=O)CCc1ccccc1Cl)(C(F)(F)F)C(=O)N3 (stereo not drawn) [Example 16, 3-(2-chlorophenyl)-N-[10,11-dimethyl-4-oxo-3-(trifluoromethyl)-2,5,7-triazatricyclo-[6.4.0.0^2,6]dodeca-1(8),6,9,11-tetraen-3-yl]propanamide] | 1.3 |
| COc1ccc(-c2cccc3c2nc2n3C(NC(=O)CCC3CCCC3)(C(F)(F)F)C(=O)N2)cc1 (single isomer, unassigned) [Example 230a, 3-cyclopentyl-N-[9-(4-methoxyphenyl)-4-oxo-3-(trifluoromethyl)-2,5,7-triazatricyclo[6.4.0.0^2,6]dodeca-1(12),6,8,10-tetraen-3-yl]propanamide] | 0.26 |
| COCCN(C)c1cccc(C(=O)NC2(C(F)(F)F)C(=O)Nc3nc4cc(Cl)c(Cl)cc4n32)n1 (stereo not drawn) [Example 94, N-[10,11-dichloro-4-oxo-3-(trifluoromethyl)-2,5,7-triazatricyclo[6.4.0.0^2,6]dodeca-1(8),6,9,11-tetraen-3-yl]-6-[(2-methoxyethyl)(methyl)amino]pyridine-2-carboxamide] | 1.59 |
| O=C(CCC1CCCC1)NC1(C(F)(F)F)C(=O)Nc2nc3c(Cl)c(Cl)ccc3n21 (stereo not drawn) [Example 83, 3-cyclopentyl-N-[9,10-dichloro-4-oxo-3-(trifluoromethyl)-2,5,7-triazatricyclo[6.4.0.0^2,6]-dodeca-1(12),6,8,10-tetraen-3-yl]propanamide] | 0.6 |
| Cc1cc2c(nc3n2C(NC(=O)c2ccccc2)(C(F)(F)F)C(=O)N3)c(Br)c1C (stereo not drawn) [Example 77, N-[9-bromo-10,11-dimethyl-4-oxo-3-(trifluoromethyl)-2,5,7-triazatricyclo[6.4.0.0^2,6]dodeca-1(8),6,9,11-tetraen-3-yl]benzamide] | 4.3 |
| COCCNc1cccc(C(=O)NC2(C(F)(F)F)C(=O)Nc3nc4cc(C)c(C)cc4n32)n1 (single isomer, unassigned) [Example 220a, N-[10,11-dimethyl-4-oxo-3-(trifluoromethyl)-2,5,7-triazatricyclo[6.4.0.0^2,6]dodeca-1(12),6,8,10-tetraen-3-yl]-6-[(2-methoxyethyl)amino]pyridine-2-carboxamide] | 1.93 |
| O=C(CCN1CC(F)(F)C1)NC1(C(F)(F)F)C(=O)Nc2nc3cc(Cl)c(Cl)cc3n21 (stereo not drawn) [Example 104, N-[10,11-dichloro-4-oxo-3-(trifluoromethyl)-2,5,7-triazatricyclo[6.4.0.0^2,6]dodeca-1(8),6,9,11-tetraen-3-yl]-3-(3,3-difluoroazetidin-1-yl)propanamide] | 4.02 |
| O=C(NC1(C(F)(F)F)C(=O)Nc2nc3cc(Cl)c(Cl)cc3n21)[C@@H]1CCN(S(=O)(=O)C2CCCC2)C1 (stereo partly drawn) [Example 51, (3R)-1-(cyclopentanesulfonyl)-N-[10,11-dichloro-4-oxo-3-(trifluoromethyl)-2,5,7-triaza-tricyclo[6.4.0.0^2,6]dodeca-1(12),6,8,10-tetraen-3-yl]pyrrolidine-3-carboxamide] | 1.2 |
| O=C(CCC1CCCC1)NC1(C(F)(F)F)C(=O)Nc2nc3c(OC(F)(F)F)cccc3n21 (stereo not drawn) [Example 164, 3-cyclopentyl-N-[4-oxo-9-(trifluoromethoxy)-3-(trifluoromethyl)-2,5,7-triazatricyclo[6.4.0.0^2,6]dodeca-1(12),6,8,10-tetraen-3-yl]propanamide] | 1.47 |
| O=C(CCC1CCCC1)NC1(C(F)(F)F)C(=O)Nc2nc3c(Cl)cc(Cl)cc3n21 (stereo not drawn) [Example 84, 3-cyclopentyl-N-[9,11-dichloro-4-oxo-3-(trifluoromethyl)-2,5,7-triazatricyclo[6.4.0.0^2,6]-dodeca-1(12),6,8,10-tetraen-3-yl]propanamide] | 1.4 |
| CSc1ccc(-c2cccc3c2nc2n3C(NC(=O)CCC3CCCC3)(C(F)(F)F)C(=O)N2)cc1 (stereo not drawn) [Example 232, 3-cyclopentyl-N-{9-[4-(methylsulfanyl)phenyl]-4-oxo-3-(trifluoromethyl)-2,5,7-triazatricyclo[6.4.0.0^2,6]dodeca-1(12),6,8,10-tetraen-3-yl}propanamide] | 0.54 |
